The term Kd denotes the equilibrium constant for the complex coming apart. The low end stands for a tighter complex, the high end for a looser complex.

The assay addresses T1, MD-2 (Homo sapiens, UniProt Q9Y6Y9).
T1 sequence (Q9Y6Y9 19-160): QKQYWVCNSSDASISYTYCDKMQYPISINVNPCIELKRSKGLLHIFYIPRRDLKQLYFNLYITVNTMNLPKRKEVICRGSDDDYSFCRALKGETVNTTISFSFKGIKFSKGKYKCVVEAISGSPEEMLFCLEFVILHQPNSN
Briefly: quenching of MD-2 intrinsic Tyr/Trp fluorescence. It is filed as binding.

Each structure is given as a SMILES string.

Regarding `CN1CC[C@]23c4c5ccc(O[C@@H]6O[C@H](C(=O)O)[C@@H](O)[C@H](O)[C@H]6O)c4O[C@H]2[C@@H](O)C=C[C@H]3[C@H]1C5` [M3G, morphine-3-glucuronide], the Kd worked out at 1500 ± 300 nM.

The values above are taken from PMC4250379 (Neuroscience, 2014).
